This assay in a line: Inhibition of aggregation of human DHFR-fused amyloid beta (1 to 42) expressed in yeast harboring erg6delta assessed as increase in yeast viability measured up to 20 hrs in presence of MTX.

pIC50: −log10 of the molar value.

Regarding `Cc1nc2sc3c(c2c(=O)o1)CCCC3`, the pIC50 was 5.92. For the compound `O=S(=O)(Nc1ccc(N2CCCCC2)cc1)c1cc(Cl)sc1Cl`, the pIC50 is 6.15. As for `Nc1c(S(=O)(=O)c2ccc(Cl)cc2)cnc2cc(-c3ccccc3)nn12`, the pIC50 is 5.64. The result for `O=C(Nc1ccccc1)Nc1ccc(Cl)cc1[N+](=O)[O-]` reads 6.05.

Broadly, the pIC50 is the IC50 on a negative log10 scale, so that one unit is a factor of ten.

The record behind these values is BindingDB's records for doi:10.1021/jm301186p (Universidad De Zaragoza, 2012).
